Experimental data from US9801373B2, “Compounds for alleviating phosphate starvation symptoms in plants” (Commissariat a l'Energie Atomique et aux Energies …, priority 2012, dated 2017).

Tests used:
Type in all cases: in vivo, Arabidopsis thaliana
[1] = system: PHT1 genes (PHT1;4); assay: qPCR of PHT1 transcript level on root mRNA; details: qPCR on root mRNA, FIG. 2 (B)
Procedure: Plant RNA was extracted with the RNeasy kit (QIAGEN, France). For transcriptome data, RNA were analysed by the CATMA technology (Complete Arabidopsis Transcriptome Microarray). For qPCR, poly(dT) cDNA were prepared from 500 ng total RNA with Superscript III reverse transcriptase (Invitrogen, France) and analysed on a LightCycler 480 apparatus (Roche Diagnostics, France) with the SYBR Green I Master kit (Roche Diagnostics, France) according to the manufacturer's instructions. Targets were quantified with specific primer pairs designed with Primer3 website (http://frodo.wi.mit.edu/primer3/) (see Table II below). Biological triplicates were performed for all experiments. Expression levels were normalized using At2g16600, At3g04120, At1g35160 and At1g32050 genes.

[2] = system: PHT1;4 expression; assay: Chemical genetics screen, GUS staining of pht1;4-1 reporter line
Description: (§1) A “chemical genetics” approach has been carried out to isolate compounds that inhibit the phosphate (Pi) response in Arabidopsis thaliana. Compounds were screened for their ability to inhibit the expression of a phosphate starvation marker, namely the high affinity Pi transporter PHT1,4 gene. For the screening, the A. thaliana pht1;4-1 line (ecotype Wassilewskija) was chosen (Misson et al., 2004). It contains a T-DNA construct inserted into Pht1;4 gene creating a transcriptional fusion with a GUS reporter gene. For phenotypic analyses, A. thaliana Columbia and various lines derived from this ecotype were used. They are either transgenic lines expressing reporter gene as cycB1::GUS (Colón Carmona et al., 1999), MGD3::LUC, PHT1;4::LUC, At1g73010::LUC or various mutants affecting root response to low Pi such as: pdr2 (Ticconi et al., 2004), lpr1, lpr2 (Svistoonoff et al., 2007), lpi1, lpi2 and lpi3 (Sanchez-Calderon et al., 2006).
For the screening, the LATCA collection of 3600 biologically active compounds (Zhao et al., 2007) was used at a final concentration of 25 μM in 1% DMSO. Four to five Arabidopsis seeds of pht1;4-1 (Misson et al., 2004) reporter line were sown in 96-well plates containing 100 μL liquid MS/10 medium with 500 μM of Pi at pH 5.7. After 2 days at 4° C., plants were grown for five days in a culture chamber under a 16 h light/8 h dark regime (24/21° C., 150 μE m^−2s^−1). Medium was then replaced by MS/10 with only 5 μM Pi and the tested compounds were added to the 96-well plates. […] Five days later, plantlets were analysed by GUS staining to assay the activity of the reporter gene inserted in pht1;4 gene. […] Then, plates were analysed using a MZ16 stereomicroscope (Leica microsystems, Germany).
The GUS activity was detected as previously described by Jefferson et al. (1987), using a GUS staining solution containing 50 mM sodium phosphate buffer pH 7.0; 0.01% Triton X-100, 1 mM K3Fe(CN)6, 1 mM K4Fe(CN)6, 1 mg/ml 5-bromo-4-chloro-3-indolyl B-D-glucuronide (X-Gluc). […]

[3] = system: wild-type (WT) seedlings; assay: Primary root growth of wild-type seedlings; details: for activity of PTN1 analogues (inhibitor activity of PHT1;4 expression and effect on the growth): WT seedlings, FIG. 6; for concentration at which active on primary root growth: −Pi
Procedure: (§2) In the Pi deficient medium, NaCl (0.5 mM) was used to replace the equivalent amount of sodium provided by NaH2PO4. For controls of the effects of the compounds, 1% of DMSO (Dimethyl sulfoxid, SIGMA, 472301), solvent for the tested compounds, was added. After 2 days at 4° C., the plates were placed in a vertical position and plants were grown in a culture chamber under a 16 h light/8 h dark regime (24/21° C., 150 μE m^−2s^−1). For 4 weeks culture, large plates (24×24 cm) were placed in a horizontal position. Root architecture and aerial part area were quantified using program ImageJ.

[4] = system: lpr1, lpr2 and lpi mutants; assay: Primary root growth of mutants with reduced root sensitivity to Pi starvation; details: 7-days-old plants, PTN1 40 μM, FIG. 8
Description: as §1
In the Pi deficient medium, NaCl (0.5 mM) was used to replace the equivalent amount of sodium provided by NaH2PO4. For controls of the effects of the compounds, 1% of DMSO (Dimethyl sulfoxid, SIGMA, 472301), solvent for the tested compounds, was added. […] Root architecture and aerial part area were quantified using program ImageJ.

[5] = system: lpr1 mutant; assay: Shoot growth of lpr1 mutant; details: −Pi, 28-days-old plants
Procedure: as §2

Row | SMILES | effect on PHT1;4 transcript level [1] | toxicity as cause of reduced reporter gene expression ([2]; 25 μM, 5 days on −Pi) | PHT1;4 expression (analogue test) ([2]; 100 μM) | activity of PTN1 analogues (inhibitor activity of PHT1;4 expression and effect on the growth) [3] | primary root growth on −Pi ([3]; WT, 7-day-old plantlets, FIG. 7 (A)) | concentration at which active on primary root growth ([3]; FIG. 7 (A)) [µM] | primary root growth of lpr1 or lpi mutants [4] | growth of the lpr1 rosette [5] | primary root growth at various external Pi concentrations (15-250 uM) ([3]; 10 uM, 5 days on Pi rich medium then 24 hours on tested conditions, FIG. 7 (D))
1 | CS(=O)(=O)C1=C2C=CCCC2=C(C(=O)Sc2ccc(Cl)cc2)C1 [PTN2] | dose dependant manner | not explained by toxicity |  |  |  |  |  |  | 
2 | Sc1ccc(Cl)cc1 [PTN3, 4-chlorothiophenol] |  |  | repressed PHT1;4 expression | Active | sustained also the primary root growth | 100 |  |  | 
3 | Clc1ccc(SSc2ccc(Cl)cc2)cc1 [PTN4] |  |  |  | Active |  | 10 | no additive effect | +25% | improved root growth until 50/75 μM of Pi
